Reference: patent US6716829B2, “Aldosterone antagonist and cyclooxygenase-2 inhibitor combination therapy to prevent or treat inflammation-related cardiovascular disorders” (Pharmacia Corporation, priority 2000, dated 2004)
Where “and” joins values, the source holds several entries; their conditions need not be identical. Identical values can stand only once. Entries after “also recorded” stand apart in the source; their conditions may differ.

How the values were obtained:
[1] = test system: cyclooxgenase-2; assay: Assay A: immunostaining of hearts with cyclooxygenase-2 specific antibody; type: in vivo, Male Wistar rats; conditions: angiotensin II infused rats, eplerenone 100 mpk, aldosterone replacement in adrenalectomized rats
Source text: Cycloxygenase-2 staining was also observed in the vascular smooth muscle cells of the media of coronary arteries, even when there was no evidence of morphologic alterations or inflammatory aggregates in the perivascular space (FIG. 26).

[2] = test system: Collagen I; assay: Assay C: Collagen I mRNA by TaqMan RT-PCR; type: in vivo, Male Sprague-Dawley rats; conditions: for Collagen type-I message: at 30 days, compared to vehicle + salt controls; for Collagen-I (AU): collagen type I mRNA relative to cyclophilin, eplerenone dose 100 mg/kg/day
Protocol: (§1) The procedure of Assay B was expanded upon in a further study. […] Myocardial tissue from animals in each treatment group was examined after 7, 14, or 30 days of treatment.
(§2) Potassium chloride supplementation was added to the saline solution in order to prevent the potential hypokalemia associated with aldosterone excess.
(§3) At the time of the surgery, an Alzet 2002 osmotic minipump (Alza Corp., Palo Alto, Calif.) containing either vehicle (9% ethanol/87% propylene glycol/4% dH2O) or 1.0 mg/mL d-aldosterone (Sigma Chemical, St. Louis, Mo.) was inserted subcutaneously at the nape of the neck. Aldosterone was administered at a dose of 0.75 µg/hour. […] Animals were sacrificed from each group (n=8-13) after 7, 14, or 30 days of treatment.
(§4) The fluorogenic 5′-nuclease assay (TaqMan PCR) using Applied Biosystems' 7700 Sequence Detection System (Applied Biosystems, Foster City, Calif.) allowed for real time detection/quantitation of a specific gene by monitoring the increase in fluorescence of a gene-specific, dye-labeled oligonucleotide probe. Probes for target and reference genes were labeled at the 5′-end with a 6-carboxyfluorescein (6FAM) reporter dye and at the 3′-end with a 6-carboxy-N,N,N′,N′-tetramethylrhodamine (TAMRA) quencher dye. When the probe was annealed to the target gene, fluorescence of 6FAM was prevented by the close proximity of TAMRA. The exonuclease activity of Taq polymerase released the dyes from the oligonucleotide probe by displacing the probe from the target sequence resulting in fluorescence excitation in direct proportion to the amount of target message present. Data analysis was performed using the Sequence Detection System software from Applied Biosystems.
Primers and probes were designed using Oligo Primer Analysis Software, Version 5.0 (National Biosciences Inc. (NBI)-Wojciech Rychlik, Cascade, Colo.). Primers were synthesized by Life Technologies (Grand Island, N.Y.) and probes were synthesized by Applied Biosystems. Primer/probe sets were designed from known sequences of rat genes to be analyzed. All target gene values were normalized to a reference gene, constitutively expressed cyclophilin. Primer/probe sets sequences can be found in Table 8
RNA was extracted from frozen (−70° C.) left ventricle (LV) tissue (approximately 10-20 mg) using 1.5 mL RNA-STAT 60 according to manufacturer's instructions (Leedo Medical Laboratories, Inc., Houston, Tex.). Briefly, tissues were homogenized using a tissue homogenizer equipped with a 5 mm probe (Ultra-Turrax T8 Homogenizer, IKA Works, Inc. Wilmington, N.C.). Following homogenization, an equal volume of molecular grade chloroform (Sigma Chemical Co., St. Louis, Mo.) was incubated with periodic mixing for 10 min at room temperature. Samples were centrifuged at 12,000 g for 10 min and RNA was precipitated from the top layer by adding an equal volume of molecular grade isopropanol (Sigma Chemical Co.) followed by an overnight incubation at −80° C. RNA was pelleted by centrifugation at 12,000 g, washed with 75% ethanol, and solubilized in nuclease-free water (Promega, Madison, Wis.).
Double-stranded cDNA was synthesized by adding 400 ng RNA (4 uL) to a final volume of 20 uL containing 15% nuclease-free water (Promega, Madison, Wis.), 1×RT Buffer (Life Technologies, Grand Island, N.Y.), 10 mM DTT (Life Technologies), 0.5 mM each of dATP, dTTP, dGTP, dCTP (PE Biosystems, Foster City, Calif.), 2.5 μM Oligo d(T)15 (Oligo Therapeutics, Inc., Wilsonville, Oreg.), 40 units RNAsin (Promega), and 200 units SuperScript II Reverse Transcriptase (Life Technologies). The reactions were performed in thin-walled reaction tubes with caps (Applied Biosystems) to ensure accurate reaction temperatures.

[3] = test system: cyclooxygenase-2 (COX-2); assay: Assay C: COX-2 mRNA in heart by TaqMan RT-PCR; type: in vivo, Male Sprague-Dawley rats; conditions: for COX-2 (AU): mRNA; for COX-2 mRNA expression: myocardium, aldosterone + salt, 7, 14, 30 days, eplerenone 100 mg/kg/day
Protocol: as §1, §2, §3, §4
(§5) All primers and probes were designed using Primer Express software supplied with the 7700 Sequence Detection System and synthesized by Applied Biosystems. Standard curves using 5-fold dilutions of total RNA (from 200 ng to 320 pg) were performed to determine the efficiency of each primer/probe set in the TaqMan reaction prior to the analysis of the experimental samples. Primer/probe sets were designed from known sequences of rat genes to be analyzed. All target gene values were normalized to a reference gene, constitutively expressed cyclophilin. Primer/probe set sequences can be found in Table 8.
(§6) RNA was extracted from frozen (−80° C.) rat heart tissue using the Totally RNA Isolation Kit (Ambion, Inc., Austin, Tex.). Tissue was crushed using a stainless steel mortar and pestle, which had been chilled to −80° C. and transferred to a dounce homogenizer (Kontes, Vineland, N.J.) containing 3-10 mL cold denaturation buffer. Tissue was homogenized and transferred to a sterile, 15 mL polypropylene centrifuge tube. An equal volume of phenol:chloroform:isoamyl alcohol (25:24:1) was added, samples were shaken vigorously for 1 min, and incubated on ice for at least 15 min. Samples were centrifuged for 30 min at 10,000g. The aqueous phase was removed, 1/10 volume of a sodium acetate solution (3.0 M NaOAc pH 4.5) was added, samples were shaken or inverted for 10 seconds, and acid-phenol (premixed with isoamyl alcohol):chloroform (5:1, Ambion, Inc.) was added at an volume equivalent to the starting sample volume. Samples were shaken vigorously for 1 min, followed by a 15-min incubation on ice, and centrifuged for 30 min at 10,000 g. The aqueous phase removed and placed in a clean polypropylene tube. An equal volume of isopropanol (Sigma, St. Louis, Mo.) was added and the samples were mixed and incubated overnight at −20° C. The samples were centrifuged for 30 min at 10,000 g, the supernatant was removed and the RNA pellet was resuspended in DNAse/RNAse-free water. Samples were frozen at −80° C. for at least 2 hours, thawed on wet ice, and diluted for quantitation.

[4] = test system: vascular cell adhesion molecule-1 (VCAM-1); assay: Assay C: VCAM-1 mRNA in heart by TaqMan RT-PCR; type: in vivo, Male Sprague-Dawley rats; conditions: for VCAM mRNA (AU): relative to cyclophilin expression, mean ± SEM, eplerenone dose 100 mg/kg/day; for VCAM (AU): mRNA; for VCAM-1 mRNA expression: myocardium, aldosterone + salt, 7, 14, 30 days, eplerenone 100 mg/kg/day
Protocol: as §1, §2, §3, §4, §5, §6

[5] = mean ± SEM after 7 days of treatment
[6] = mean ± SEM after 14 days of treatment
[7] = mean ± SEM after 30 days of treatment
[8] = group mean, data used for Table 15 (14 days of treatment)
[9] = group mean, data used for Table 16 (30 days of treatment)
[10] = group mean, data used for Table 17 (7-day protocol)
[11] = group mean, data used for Table 18 (14-day protocol)
[12] = group mean, data used for Table 19 (30-day protocol)
[13] = individual rats, data used for Table 17 (7-day protocol), incl. rat marked * excluded from statistics, listed as Aldosterone + salt
[14] = individual rats, data used for Table 18 (14-day protocol), incl. rat marked * excluded from statistics, listed as Aldosterone + salt
[15] = individual rats, data used for Table 19 (30-day protocol), incl. rat marked * excluded from statistics, listed as Aldosterone + salt
[16] = individual rats, data used for Table 17 (7-day protocol), incl. rat marked * excluded from statistics, listed as Eplerenone + aldosterone + salt
[17] = individual rats, data used for Table 18 (14-day protocol), incl. rat marked * excluded from statistics, listed as Eplerenone + aldosterone + salt
[18] = individual rats, data used for Table 19 (30-day protocol), incl. rat marked * excluded from statistics, listed as Eplerenone + aldosterone + salt

Structure (SMILES) | Cyclooxygenase-2 expression in the heart (immunostaining) [1] | Collagen type-I message [2] | Collagen-I (AU) [2, 5] [AU] | Collagen-I (AU) [2, 6] [AU] | Collagen-I (AU) [2, 7] [AU] | Collagen-I mRNA (AU) [2, 8] [AU] | Collagen-I mRNA (AU) [2, 9] [AU] | COX-2 (AU) [3, 10] [AU] | COX-2 (AU) [3, 11] [AU] | COX-2 (AU) [3, 12] [AU] | COX-2 mRNA expression [3] | VCAM mRNA (AU) ([4]; after 7 days of treatment) | VCAM mRNA (AU) ([4]; after 14 days of treatment) | VCAM mRNA (AU) ([4]; after 30 days of treatment) | VCAM (AU) [4, 10] [AU] | VCAM (AU) [4, 11] [AU] | VCAM (AU) [4, 12] [AU] | VCAM-1 mRNA expression [4] | other results
C[C@]12CCC(=O)C=C1CC[C@@H]1[C@@H]2[C@@H](O)C[C@]2(C=O)[C@@H](C(=O)CO)CC[C@@H]12 [Aldosterone] | restored the presence of cycloxygenase-2 | modest increase | 1.36 ± 0.14 | 1.33 ± 0.24 | 2.29 ± 0.47 | 1.33 | 2.29 | 2.22 | 4.34 | 4.53 | significantly increased | 1.55 ± 0.39 | 1.16 | 2.14 ± 0.49 | 1.55 | 1.16 | 2.14 | increased two-fold | Collagen-I mRNA (AU) ([2]; individual rats, data used for Table 15 (14 days of treatment), incl. rat marked * excluded from statistics, listed as Aldosterone + salt): 1.15 AU and 2.31 AU and 0.25 AU and 1.89 AU and 2.03 AU and 1.00 AU and 1.20 AU and 1.70 AU and 0.43 AU and 2.69 AU; Collagen-I mRNA (AU) ([2]; individual rats, data used for Table 16 (30 days of treatment), incl. rat marked * excluded from statistics, listed as Aldosterone + salt): 2.20 AU and 2.02 AU (2×) and 5.88 AU and 1.05 AU and 1.32 AU and 1.98 AU and 1.63 AU and 2.54 AU; COX-2 (AU) [3, 13]: 2.10 AU and 0.70 AU and 2.01 AU and 2.95 AU and 2.05 AU and 1.94 AU and 3.54 AU and 2.45 AU and 0.82 AU; COX-2 (AU) [3, 14]: 7.39 AU and 1.83 AU and 5.80 AU and 2.59 AU and 6.63 AU and 4.18 AU and 3.71 AU and 2.62 AU and 23.34 AU; COX-2 (AU) [3, 15]: 4.26 AU and 4.81 AU and 1.54 AU and 3.10 AU and 5.28 AU and 8.20 AU; VCAM (AU) [4, 13]: 3.49 AU and 0.85 AU and 2.06 AU and 2.51 AU and 1.65 AU and 0.61 AU and 0.94 AU and 0.27 AU and 5.23 AU; VCAM (AU) [4, 14]: 0.89 AU and 0.69 AU and 0.84 AU and 0.72 AU and 2.23 AU and 1.03 AU and 1.65 AU and 1.24 AU and 1.75 AU; VCAM (AU) [4, 15]: 3.48 AU and 1.87 AU and 2.99 AU and 1.64 AU and 0.72 AU
COC(=O)[C@@H]1CC2=CC(=O)CC[C@]2(C)[C@@]23O[C@@H]2C[C@@]2(C)[C@@H](CC[C@@]24CCC(=O)O4)[C@H]13 [Eplerenone] | markedly reduced and in most cases completely prevented | modest increase | 0.85 ± 0.15 | 1.39 ± 0.21 | 2.53 ± 0.20 | 1.39 | 2.53 | 1.25 | 2.02 | 2.28 | inhibition; also recorded: significantly reduced | 0.56 ± 0.08 | 0.83 | 1.04 ± 0.14 | 0.56 | 0.83 | 1.04 | inhibition; also recorded: significantly reduced | Cyclooxygenase-2 expression in the heart (immunostaining) ([1]; listed as eplerenone): prevention; Collagen-I mRNA (AU) ([2]; individual rats, data used for Table 15 (14 days of treatment), incl. rat marked * excluded from statistics, listed as Eplerenone + aldosterone + salt): 0.86 AU (2×) and 0.90 AU and 1.65 AU and 1.14 AU and 1.44 AU and 0.50 AU and 1.24 AU and 1.69 AU and 2.03 AU and 3.02 AU; Collagen-I mRNA (AU) ([2]; individual rats, data used for Table 16 (30 days of treatment), incl. rat marked * excluded from statistics, listed as Eplerenone + aldosterone + salt): 1.89 AU and 1.54 AU and 2.65 AU (2×) and 1.97 AU and 2.98 AU and 2.90 AU and 2.88 AU and 3.35 AU and 2.01 AU; COX-2 (AU) [3, 16]: 1.19 AU and 2.85 AU and 0.60 AU (2×) and 1.16 AU and 0.82 AU and 1.86 AU and 0.91 AU; COX-2 (AU) [3, 17]: 1.56 AU and 1.04 AU and 0.70 AU and 1.41 AU and 3.78 AU and 1.86 AU and 6.19 AU and 1.87 AU and 0.99 AU and 1.92 AU and 0.86 AU; COX-2 (AU) [3, 18]: 2.44 AU and 0.55 AU and 1.97 AU and 3.41 AU and 3.71 AU and 3.04 AU and 2.11 AU and 1.34 AU and 1.92 AU and 12.21 AU; VCAM (AU) [4, 16]: 0.67 AU and 0.58 AU and 0.22 AU and 0.57 AU and 0.53 AU and 1.00 AU; VCAM (AU) [4, 17]: 0.54 AU and 0.66 AU and 0.61 AU (2×) and 0.67 AU and 0.86 AU and 1.21 AU and 1.00 AU and 0.68 AU (2×) and 1.60 AU; VCAM (AU) [4, 18]: 1.42 AU (2×) and 1.29 AU and 1.49 AU and 1.27 AU and 0.79 AU and 0.52 AU and 0.57 AU and 0.61 AU and 4.01 AU
